Where a SMILES comes first, the peptide text is derived from it. Where no end group is shown, it is not given here. [ ]: non-standard residue; d: D form. The star is where a group is joined. d2Nal = N[C@H](Cc1ccc2ccccc2c1)C(=O)O; Octanoyl = CCCCCCCC(=O)*; Dap = NC[C@H](N)C(=O)O
Columns and labels:
[1] = biological target: T1, hypothalamic ghrelin receptor (Rattus norvegicus, UniProt O08725); assay: Spontaneous and ghrelin-stimulated GH secretion after icv ghrelin analogs in adult male rats; type: in vivo; set-up: from tissue; host or cells: whole animal (adult male rats); conditions: for spontaneous growth hormone secretion / plasma GH levels: ghrelin analog 10 μg icv, 6-h sampling
Description: (§1) In vivo effects were measured on spontaneous and ghrelin-stimulated GH secrtion over a 6-h sampling period, and food intake monitored hourly over a 5-h period and body weight change over 24 h.

[2] = biological target: T1, hypothalamic ghrelin receptor; assay: Food intake and body weight change after icv ghrelin analogs in adult male rats; type: in vivo; set-up: from tissue; host or cells: whole animal (adult male rats); conditions: ghrelin analog 10 μg icv; for body weight gain: change over 24 h; for (cumulative) food intake: monitored hourly over 5 h
Description: as §1

[3] = biological target: T2, GOAT (Homo sapiens, UniProt Q96T53); assay: Acyl Transferase activity of GOAT in vitro; type: biochemical
T2 sequence (Q96T53 1-435): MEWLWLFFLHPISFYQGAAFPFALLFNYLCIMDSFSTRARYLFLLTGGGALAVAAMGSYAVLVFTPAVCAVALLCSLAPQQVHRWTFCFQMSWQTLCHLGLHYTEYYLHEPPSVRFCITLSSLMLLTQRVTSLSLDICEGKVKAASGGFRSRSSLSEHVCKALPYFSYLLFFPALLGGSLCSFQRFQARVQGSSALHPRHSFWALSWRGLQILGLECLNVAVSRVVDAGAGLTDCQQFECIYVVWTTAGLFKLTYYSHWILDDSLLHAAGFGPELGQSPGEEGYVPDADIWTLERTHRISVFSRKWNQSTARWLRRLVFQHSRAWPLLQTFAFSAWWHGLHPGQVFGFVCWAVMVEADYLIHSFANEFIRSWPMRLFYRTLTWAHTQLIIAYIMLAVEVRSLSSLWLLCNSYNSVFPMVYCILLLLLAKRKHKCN

[4] = biological target: T3, GHS-R 1a (Rattus norvegicus, UniProt O08725); assay: Ghrelin-induced GH release in free-moving adult male rats; type: in vivo; conditions: for GH response to i.c.v. ghrelin: 5 μg antagonist i.c.v. 15 min before 500 ng ghrelin i.c.v.
T3 construct: free-moving rats were i.c.v. injected with either normal saline or GHS-A (5 μg); from tissue; host or cells: whole animal (adult male Sprague Dawley rats)
Description: Adult male Sprague Dawley rats (225-260 g) were purchased from Charles River Canada (St. Constant, Canada) and individually housed on a 12-h light, 12-h dark cycle (lights on, 0600-1800 h) in a temperature (22±1° C.)—and humidity-controlled room. Purina rat chow (Ralston Purina Co., St. Louis, Mo.) and tap water were available ad libitum. Chronic intracerebroventricular (i.c.v.) and intracardiac venous cannulas were implanted under sodium pentobarbital (50 mg/kg, i.p.) anesthesia using previously described techniques in (2) and (11). […] During this time the rats were handled daily to minimize any stress associated with handling on the day of the experiment. On the test day, food was removed 1.5 h before the start of sampling and was returned at the end. […] Both the human ghrelin peptide (provided by Dr. K. Chang, Phoenix Pharmaceuticals, Inc., Belmont, Calif.) and the GHS-A were diluted in normal saline just before use. Blood samples (0.35 ml) were withdrawn every 15 min over a 6-h sampling period (1000-1600 h) from all animals. […] All blood samples were immediately centrifuged, and plasma was separated and stored at −20° C. for subsequent assay of GH. To avoid hemodynamic disturbance, the red blood cells were resuspended in normal saline and returned to the animal after removal of the next blood sample. […] Blood samples were withdrawn from 1000-1600 h, as described above.

[5] = biological target: T3, GHS-R 1a; assay: Spontaneous and ghrelin-induced food intake in rats; type: in vivo
Description: The effects of the GHS-A on both spontaneous and ghrelin-induced food intake and body weight gain were investigated. For the spontaneous experiments, the rats were fasted overnight (1600-1100 h next morning) and were i.c.v.-injected with either normal saline or GHS-A (5 μg) at 1100 h. Food intake was monitored on an hourly basis for 5 h after the initial injection (until 1600 h) and subsequently overnight (1600-0900 h next morning). A measured amount of rat chow pellets was placed in the cage every hour. Spillage was collected by placement of a diaper under the rat cages, and total food consumed for each period was calculated by subtracting uneaten food plus spillage from total given. Body weights were recorded daily at 0900 h. The latency to the onset of the first meal after the injection and the duration of that meal were also monitored.
Food intake was monitored on an hourly basis as described above. In this experiment, food was removed 1.5 h before the start of the test.

[6] = biological target: T3, GHS-R 1a; assay: Spontaneous pulsatile GH secretion in free-moving adult male rats; type: in vivo
Description: Adult male Sprague Dawley rats (225-260 g) were purchased from Charles River Canada (St. Constant, Canada) and individually housed on a 12-h light, 12-h dark cycle (lights on, 0600-1800 h) in a temperature (22±1° C.)—and humidity-controlled room. Purina rat chow (Ralston Purina Co., St. Louis, Mo.) and tap water were available ad libitum.
Chronic intracerebroventricular (i.c.v.) and intracardiac venous cannulas were implanted under sodium pentobarbital (50 mg/kg, i.p.) anesthesia using previously described techniques in (2) and (11). The placement of the icy cannulae was verified by both a positive drinking response to i.c.v. carbachol (100 ng/10 μl) injection on the day after surgery and methylene blue dye at the time of death. After surgery, the rats were placed directly in isolation test chambers with food and H2O freely available until body weight returned to preoperative levels (usually within 5-7 d). During this time the rats were handled daily to minimize any stress associated with handling on the day of the experiment. On the test day, food was removed 1.5 h before the start of sampling and was returned at the end.
These time points were chosen because they correspond closely to the time of onset of the spontaneous GH secretory episodes, as previously documented in our laboratory (2, 4). Blood samples were withdrawn from 1000-1600 h, as described above; however, no blood sample was withdrawn 5 min after the injections.

[7] = biological target: Ghrelin/GHRP/GHS Receptor (Rattus norvegicus, UniProt O08725); assay: In vivo GH release in rat after i.v. peptide (serum GH by RIA)
Description: For the in vivo assay of GH Release in rat, immature female Sprague Dawley rats were obtained from Charles River from Wilmington, Mass. After arrival they were housed at 25° C. with a 14:10 h light:dark cycle. Water and Purina rat chow were available at libitum. Pups were weaned at 21 days of age.
Immature twenty six day old female Sprague Dawley rats, 3-6 rats per treatment dose, were pretreated with pentobarbital 20 minutes before iv injection of vehicle/peptide or peptide plus stimulator. Injection was made as a 0.1 ml solution. For the non-pentobarbital treated rat assay, peptides were administered iv into the tail vein of conscious rats. All animals were sacrificed by guillotine after iv peptide or vehicle. Trunk blood was collected at +10-15 minutes […], allowed to clot, centrifuged and serum stored until assayed for GH levels by RIA. The GH RIA reagents were distributed by the NIH. Control data was collected from rats treated with only the corresponding vehicle in the absence of peptide or stimulator. Control stimulated data was collected from rats treated with stimulator alone in the absence of any peptide.

[8] = system: GHRH; assay: GH response to GHRH in rats; type: in vivo, rat; conditions: GHRH 5 μg i.v.
[9] = listed as Gly-Met-Ala-Gly-Ser-(Dap-Oct)-Phe-Leu-Ser-Pro-Glu-His-NH2
[10] = listed as GMA{Dap^3Oct}ghrelinNH2 1-9
[11] = 5 μg i.c.v. before ghrelin 500 ng i.c.v.
[12] = 5 μg i.c.v., overnight-fasted animals

T3 sequence (O08725 whole entry): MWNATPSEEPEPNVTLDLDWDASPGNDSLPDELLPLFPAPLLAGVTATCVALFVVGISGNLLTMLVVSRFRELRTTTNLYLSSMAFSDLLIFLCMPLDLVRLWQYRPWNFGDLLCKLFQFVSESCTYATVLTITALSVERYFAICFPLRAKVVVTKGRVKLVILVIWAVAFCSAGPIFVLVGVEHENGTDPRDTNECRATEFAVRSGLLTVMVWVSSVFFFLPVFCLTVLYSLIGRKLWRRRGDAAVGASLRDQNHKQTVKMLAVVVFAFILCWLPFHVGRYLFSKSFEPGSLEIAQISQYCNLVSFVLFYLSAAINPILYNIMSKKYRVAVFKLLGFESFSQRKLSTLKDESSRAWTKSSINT
T1 sequence (O08725 whole entry): as above
Ghrelin/GHRP/GHS Receptor, sequence (O08725 whole entry): as above

CCCCCCCC(=O)NC[C@H](NC(=O)[C@H](CO)NC(=O)CNC(=O)[C@H](C)NC(=O)[C@H](CCSC)NC(=O)CN)C(=O)N[C@@H](Cc1ccccc1)C(=O)N[C@@H](CC(C)C)C(=O)N[C@@H](CO)C(=O)N1CCC[C@H]1C(=O)N[C@@H](CCC(=O)O)C(=O)N[C@@H](Cc1c[nH]cn1)C(N)=O [#3, Gly-Met-Ala-Gly-Ser-(Dap-Oct)-Phe-Leu-Ser-Pro-Glu-His-NH2] (H-GMAGS[Dap](Octanoyl)FLSPEH-NH2; N-terminus assumed)
decrease in mean plasma GH levels compared with controls ([1]; central administration): 3-to-4 fold
spontaneous growth hormone secretion / plasma GH levels [1]: inhibited growth hormone secretion
spontaneous growth hormone secretion / plasma GH levels ([1]; listed as GMA duodecapeptide ghrelin analog): inhibitory activity
spontaneous growth hormone secretion / plasma GH levels [1, 9]: inhibited
stimulatory action of ghrelin on GH release after pretreatment ([1]; pretreatment with analog): blocked
body weight gain [2, 10]: inhibits
body weight gain ([2]; listed as duodecapeptide): effective
(cumulative) food intake [2]: inhibited food intake
(cumulative) food intake [2, 10]: inhibits
(cumulative) food intake [2, 9]: reduced
(cumulative) food intake ([2]; listed as duodecapeptide): effective
inhibition of the Acyl Transferase activity of GOAT [3]: ineffective

H[d2Nal][dK]W[dF]K-NH2 [4-His-DβNal-DLys-Trp-DPhe-Lys-NH2]
GH response to i.c.v. ghrelin [4]: virtually obliterated
GH response to i.c.v. ghrelin ([4]; listed as GHS-A): abolished
reduction of GH AUC following i.c.v. ghrelin vs saline-pretreated controls ([4]; 5 μg i.c.v. pretreatment, ghrelin 500 ng i.c.v.): 15 fold
GH response to i.v. ghrelin ([4]; 250 μg antagonist i.v. 15 min before 5 μg ghrelin i.v., listed as GHS-A): strongly blocked
reduction of GH AUC following i.v. ghrelin vs saline-pretreated controls ([4]; 250 μg i.v. pretreatment, ghrelin 5 μg i.v.): 5 fold
cumulative food intake after ghrelin, up to 5 h [5, 11]: significantly suppressed
ghrelin-stimulated food intake, first hour after injections [5, 11]: significantly inhibited
cumulative spontaneous food intake beyond the first hour [5, 12]: not inhibited
spontaneous food intake, first hour after injection [5, 12]: significantly inhibited
1-h GH AUC's of spontaneous GH secretory episodes (1100 h, 1400 h) and overall 6-h GH AUC ([6]; 5 μg i.c.v.): significantly reduced
GH peak frequency, interpeak interval and nadir (cluster analysis) ([6]; 5 μg i.c.v.): no significant effect
GH peak height (cluster analysis) ([6]; 5 μg i.c.v.): significant suppression
amplitude of the spontaneous GH pulses ([6]; 5 μg i.c.v. 15 min before expected GH bursts): severely attenuated
Stimulated GH release ([7]; peptide antagonist 30 μg i.v. + stimulator 0.3 μg): 733 ± 85 ng/mL
Stimulated GH release ([7]; peptide antagonist 100 μg i.v. + stimulator 1 μg): 818 ± 269 ng/mL
GH response to GHRH [8]: did not significantly reduce

Source: patent US9315546B2, “Growth hormone secretatogue receptor antagonists and uses thereof” (The Administrators of the Tulane Educational Fund, priority 2010, dated 2016)
